According to patent US11779600B2, “Methods of treating or preventing alzheimer's disease and associated conditions” (CEDARS-SINAI MEDICAL CENTER, priority 2016, dated 2023):

System: OPN
Assay: Quantitative IHC of cerebral OPN expression in ADtg mice
Format: in vivo, mouse
Experimental: ADtg mice (10 months old) received subcutaneous injections of GA [also known as Cop-1 and Copaxone®; 100 μg in phosphate-buffered saline (PBS)] or PBS alone (control group) twice a week for 1 week and then once a week for 8 weeks. For evaluation of innate immune infiltration to the brain by flow cytometry, 10-month-old ADtg mice received subcutaneous injections of GA ([…] in PBS) or PBS alone twice a week for 1 week and then once a week for 3 weeks. At the end of the study, all mice were anaesthetized and then perfused with ice-cold PBS with 0.5 mM EDTA, after which their organs were collected and analyzed or fixed in 2.5% paraformaldehyde (Sigma-Aldrich), and cryoprotected with 30% sucrose for further histological analysis. CD115^+ monocytes from mice donors were isolated as previously reported (Koronyo et al., Brain: a journal of neurology 2015,138:2399-2422). […] For microscopic analysis, we used a Carl Zeiss Axio Imager Z1 fluorescence microscope equipped with ApoTome (Carl Zeiss MicroImaging, Inc.). […] The number and area (μm^2) of OPN+ cells, Iba1^+CD45^hi cells, GFAP^+ cells, Thio-S^+ amyloid-βplaques and 4G8^+ amyloid-βplaques were determined by examining four to six coronal sections per mouse at 150-μm intervals over an area covering both the hippocampal and cortical (including entorhinal and cingulate cortex) regions. […]

glatiramer acetate [GA] was tested, and the “cerebral OPN expression in comparison to PBS controls” value (quantitative IHC, symptomatic ADtg mice, 2 months treatment (FIG. 11B)) was 1.5 times and the “increase in total OPN expression per Aβ-plaque area” value (ratio of total OPN area to plaque area, total brain regions (FIG. 11D)) was 2.6 fold.
